# Measured values published in patent US8921405B2, “Compounds” (Orexo AB, priority 2009, dated 2014).
# Biological target: T1, recombinant human mPGES-1 (Homo sapiens, UniProt O14684)
# T1 construct: made in house; host or cells: Rosetta E. coli (membrane/microsome fraction)
# T1 sequence (O14684 1-152): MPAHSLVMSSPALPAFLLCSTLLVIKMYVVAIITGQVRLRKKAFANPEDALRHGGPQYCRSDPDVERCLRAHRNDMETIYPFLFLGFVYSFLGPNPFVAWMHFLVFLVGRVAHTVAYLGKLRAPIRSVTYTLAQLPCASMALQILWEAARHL
# Experiment: mPGES-1 HTRF assay (inhibition of PGE2 formation from PGH2)
# Format: biochemical
# Settings: HTRF assay
# Outline: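 Microsomes of E. coli expressing human mPGES-1, in 0.1 M KPi pH 7.4 with 2.5 mM GSH, preincubated 25 min at room temperature with inhibitor, then given PGH2 for 1 min before FeCl2 acidic stop. PGE2 quantified by HTRF (665/620 nm ratio) against synthetic PGE2 standard curve; percent inhibition versus controls.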
row,IC50,Compound
1,5 nM,"Cn1c(Nc2cc(CNC(=O)C(C)(C)C)ccc2Cl)nc2cc(C(=O)N[C@H]3CC[C@H](C(F)(F)F)CC3)c(OCCF)cc21 [Example 97, N-(trans-4-Trifluoromethyl-cyclohex-1-yl)-1-methyl-2-(2-chloro-5-{[(tert-butylcarbonyl)-amino]-methyl}-phenylamino)-6-(2-fluoro-ethoxy)-1H-benzimidazole-5-carboxylic acid amide]"
2,6 nM,"Cn1c(Nc2cc(CNC(=O)C(C)(C)C)ccc2Cl)nc2cc(C(=O)N[C@H]3CC[C@H](C(F)(F)F)CC3)c(OCC(F)(F)F)cc21 [Example 98, N-(trans-4-Trifluoromethyl-cyclohex-1-yl)-1-methyl-2-(2-chloro-5-{[(tert-butylcarbonyl)-amino]-methyl}-phenylamino)-6-(2,2,2-trifluoro-ethoxy)-1H-benzimidazole-5-carboxylic acid amide]"
3,> 100 nM,"COc1ccc(CNC(=O)C(C)(C)C)cc1Nc1nc2cc(C(=O)N[C@H]3CC[C@H](C(F)(F)F)CC3)c(Cl)cc2[nH]1 [Example 99, N-(trans-4-Trifluoromethyl-cyclohex-1-yl)-2-(2-methoxy-5-{[(tert-butylcarbonyl)-amino]-methyl}-phenylamino)-6-chloro-1H-benzimidazole-5-carboxylic acid amide]"
4,5 nM,"CC(C)(C)C(=O)NCc1ccc(Cl)c(Nc2nc3cc(C(=O)Nc4ccc(Br)cc4)c(OCC(F)F)cc3n2CC(F)F)c1 [Example 100, N-(4-Bromo-phenyl)-2-(2-chloro-5-{[(tert-butylcarbonyl)-amino]-methyl}-phenylamino)-6-(2,2-difluoro-ethoxy)-1-(2,2-difluoroethyl)-1H-benzimidazole-5-carboxylic acid amide]"
